Reference: patent US20250145594A1, “MODULATORS OF THE INTEGRATED STRESS PATHWAY” (Calico Life Sciences LLC, priority 2020, published 2025)
pEC50: −log10 of the molar value.

What follows are molecules tested on ATF4 luciferase reporter in HEK293T cells (assay: ATF4-Luc assay (in vitro model of VWMD)). Conditions: Homo sapiens, HEK-293T, 7 h, HEK293T cells carrying the ATF4 luciferase reporter, 1 μg/mL tunicamycin, One Glo luminescence.
Format: cell-based, human
Summary of the method: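 Tunicamycin (1 μg/mL) stress with co-added compound for 7 hours in HEK293T cells stably carrying an ATF4 5′-UTR–luciferase reporter. EC50 values come from the luminescent signal (One Glo).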

**Q.** How did the pEC50 turn out when O=C(NC12CC(n3cc(-c4ccc(OC(F)(F)F)cn4)cn3)(C1)C2)[C@H]1C[C@@H](O)c2cc(Cl)c(Br)cc2O1 [Compound 380, (2R,4R)-7-bromo-6-chloro-4-hydroxy-N-(3-{4-[5-(trifluoromethoxy)pyridin-2-yl]-1H-pyrazol-1-yl}bicyclo[1.1.1]pentan-1-yl)-3,4-dihydro-2H-1-benzopyran-2-carboxamide] was run?
**A.** > 8.00

**Q.** How did the pEC50 turn out when O=C(NC12CC(c3cnc(OCCCOC(F)(F)F)o3)(C1)C2)[C@H]1C[C@@H](O)c2cc(Cl)c(F)cc2O1 [Compound 417, (2R,4R)-6-chloro-7-fluoro-4-hydroxy-N-(3-{2-[3-(trifluoromethoxy)propoxy]-1,3-oxazol-5-yl}bicyclo[1.1.1]pentan-1-yl)-3,4-dihydro-2H-1-benzopyran-2-carboxamide] was run?
**A.** > 8.00

**Q.** O=C(N[C@H]1C[C@H]2CC[C@@H](C1)N2CCCOc1ccc(Cl)cc1)C1C[C@@H](O)c2cc(Cl)ccc2O1 (stereo partly drawn) [Compound 125, (2R,4R)-6-chloro-N-{(1R,3r,5S)-8-[3-(4-chlorophenoxy)propyl]-8-azabicyclo[3.2.1]octan-3-yl}-4-hydroxy-3,4-dihydro-2H-1-benzopyran-2-carboxamide] was tested. Which pEC50 did it give?
**A.** 6.60 to 7.30

**Q.** O=C(COc1ccc(Cl)c(F)c1)N[C@H]1CC[C@H](n2cc(C(=O)N3CC[C@H](OC(F)(F)F)C3)cn2)CC1 [Compound 609, 2-(4-chloro-3-fluorophenoxy)-N-[(1S,4r)-4-{4-[(3S)-3-(trifluoromethoxy)pyrrolidine-1-carbonyl]-1H-pyrazol-1-yl}cyclohexyl]acetamide] was tested. Which pEC50 did it give?
**A.** > 8.00

**Q.** With O=C(N[C@H]1CC[C@H](n2cc(OCC(F)(F)F)cn2)CC1)[C@H]1C[C@@H](O)c2cc(Cl)ccc2O1 [Compound 524, (2R,4R)-6-chloro-4-hydroxy-N-{(1r,4R)-4-[4-(2,2,2-trifluoroethoxy)-1H-pyrazol-1-yl]cyclohexyl}-3,4-dihydro-2H-1-benzopyran-2-carboxamide] as the molecule, how does the pEC50 read?
**A.** 7.30 to 8.00
